Test results reported in US20230295115A1, “SUBSTITUTED ISOQUINOLINYLMETHYL AMIDES, ANALOGUES THEREOF, AND METHODS USING SAME” (priority 2020, published 2023).

What follows are compounds tested on HBV rcDNA (assay: HepDE19 assay with bDNA quantitation of HBV rcDNA). Settings: HepDE19 cells, 7 day incubation, rcDNA measured by Quantigene 2.0 bDNA assay, top concentration 25 μM; read-out: DE-19bDNA EC50.
Format: cell-based, hepatitis B virus (HBV)
Method in brief: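 HepDE19 cells were switched to tetracycline-free medium and exposed to compound (0.5% DMSO final) for 7 days at 37° C. rcDNA was then quantified by bDNA with an HBV-specific probe set. In parallel, viability was read as ATP content (CellTiter-Glo) after 4 days on replicate plates.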
In the case of `COc1ncc(C(C)N(C)C(=O)[C@@H]2Cc3ccccc3N2)c2cc(F)c(F)cc12` (single isomer, unassigned) [Compound 182], the EC50 is reported as 24.7 µM.
Work on `CC(c1c[nH]c(=O)c2cc(F)c(F)cc12)N(C)C(=O)C1Cc2cc(F)ccc2N1` (stereo not shown) [Compound 61, N-(1-(6,7-Difluoro-1-oxo-1,2-dihydroisoquinolin-4-yl)ethyl)-5-fluoro-N-methylindoline-2-carboxamide] yielded an EC50 of 6.7 µM.
`CC(c1c[nH]c(=O)c2cc(F)c(F)cc12)N(C)C(=O)C1Cc2cc(F)ccc2N1` (stereo not shown) [Compound 62, N-(1-(6,7-Difluoro-1-oxo-1,2-dihydroisoquinolin-4-yl)ethyl)-5-fluoro-N-methylindoline-2-carboxamide] showed an EC50 of 0.19 µM.
With `CC(c1c[nH]c(=O)c2cc(F)c(F)cc12)N(C)C(=O)C1Cc2cc(F)ccc2N1` (stereo not shown) [Compound 63, N-(1-(6,7-Difluoro-1-oxo-1,2-dihydroisoquinolin-4-yl)ethyl)-5-fluoro-N-methylindoline-2-carboxamide] the EC50 was 5.2 µM.
`CC(c1c[nH]c(=O)c2cc(F)c(F)cc12)N(C)C(=O)C1Cc2cc(F)ccc2N1` (stereo not shown) [Compound 64, N-(1-(6,7-Difluoro-1-oxo-1,2-dihydroisoquinolin-4-yl)ethyl)-5-fluoro-N-methylindoline-2-carboxamide] was tested, and the EC50 was 0.02 µM.
Work on `CC(c1c[nH]c(=O)c2c(F)c(F)ccc12)N(C)C(=O)C1Cc2c(F)cc(F)cc2N1` (stereo not shown) [Compound 65, N-(1-(7,8-Difluoro-1-oxo-1,2-dihydroisoquinolin-4-yl)ethyl)-4,6-difluoro-N-methylindoline-2-carboxamide] yielded an EC50 of 11 µM.
In the case of `CC(c1c[nH]c(=O)c2c(F)c(F)ccc12)N(C)C(=O)C1Cc2c(F)cc(F)cc2N1` (stereo not shown) [Compound 66, N-(1-(7,8-Difluoro-1-oxo-1,2-dihydroisoquinolin-4-yl)ethyl)-4,6-difluoro-N-methylindoline-2-carboxamide], the EC50 is reported as 0.21 µM.
With `CC(c1c[nH]c(=O)c2c(F)c(F)ccc12)N(C)C(=O)C1Cc2c(F)cc(F)cc2N1` (stereo not shown) [Compound 67, N-(1-(7,8-Difluoro-1-oxo-1,2-dihydroisoquinolin-4-yl)ethyl)-4,6-difluoro-N-methylindoline-2-carboxamide] the EC50 was 3.1 µM.
With `CC(c1c[nH]c(=O)c2c(F)c(F)ccc12)N(C)C(=O)C1Cc2c(F)cc(F)cc2N1` (stereo not shown) [Compound 68, N-(1-(7,8-Difluoro-1-oxo-1,2-dihydroisoquinolin-4-yl)ethyl)-4,6-difluoro-N-methylindoline-2-carboxamide] the EC50 was 0.2 µM.
Compound `CC(c1c[nH]c(=O)c2c(F)c(F)ccc12)N(C)C(=O)C1Cc2cc(F)ccc2N1` (stereo not shown) [Compound 73, N-(1-(7,8-Difluoro-1-oxo-1,2-dihydroisoquinolin-4-yl)ethyl)-5-fluoro-N-methylindoline-2-carboxamide] has an EC50 of 10 µM.
Compound `CC(c1c[nH]c(=O)c2c(F)c(F)ccc12)N(C)C(=O)C1Cc2cc(F)ccc2N1` (stereo not shown) [Compound 74, N-(1-(7,8-Difluoro-1-oxo-1,2-dihydroisoquinolin-4-yl)ethyl)-5-fluoro-N-methylindoline-2-carboxamide] has an EC50 of 0.26 µM.
With `CC(c1c[nH]c(=O)c2c(F)c(F)ccc12)N(C)C(=O)C1Cc2cc(F)ccc2N1` (stereo not shown) [Compound 75, N-(1-(7,8-Difluoro-1-oxo-1,2-dihydroisoquinolin-4-yl)ethyl)-5-fluoro-N-methylindoline-2-carboxamide] the EC50 was 0.83 µM.
`CC(c1c[nH]c(=O)c2c(F)c(F)ccc12)N(C)C(=O)C1Cc2cc(F)ccc2N1` (stereo not shown) [Compound 76, N-(1-(7,8-Difluoro-1-oxo-1,2-dihydroisoquinolin-4-yl)ethyl)-5-fluoro-N-methylindoline-2-carboxamide] was tested, and the EC50 was 4.4 µM.
Work on `CC(c1c[nH]c(=O)c2cc(F)c(F)cc12)N(C)C(=O)C1Cc2c(F)cc(F)cc2N1` (stereo not shown) [Compound 98, N-(1-(6,7-Difluoro-1-oxo-1,2-dihydroisoquinolin-4-yl)ethyl)-4,6-difluoro-N-methylindoline-2-carboxamide] yielded an EC50 of 5.9 µM.
`CC(c1c[nH]c(=O)c2cc(F)c(F)cc12)N(C)C(=O)C1Cc2c(F)cc(F)cc2N1` (stereo not shown) [Compound 99, N-(1-(6,7-Difluoro-1-oxo-1,2-dihydroisoquinolin-4-yl)ethyl)-4,6-difluoro-N-methylindoline-2-carboxamide] was tested, and the EC50 was 0.07 µM.
`CC(c1c[nH]c(=O)c2cc(F)c(F)cc12)N(C)C(=O)C1Cc2c(F)cc(F)cc2N1` (stereo not shown) [Compound 100, N-(1-(6,7-Difluoro-1-oxo-1,2-dihydroisoquinolin-4-yl)ethyl)-4,6-difluoro-N-methylindoline-2-carboxamide] showed an EC50 of 0.8 µM.
Compound `CC(c1c[nH]c(=O)c2cc(F)c(F)cc12)N(C)C(=O)C1Cc2c(F)cc(F)cc2N1` (stereo not shown) [Compound 101, N-(1-(6,7-Difluoro-1-oxo-1,2-dihydroisoquinolin-4-yl)ethyl)-4,6-difluoro-N-methylindoline-2-carboxamide] has an EC50 of 0.03 µM.
For `CC(c1c[nH]c(=O)c2c(F)c(F)ccc12)N(C)C(=O)C1Nc2ccccc2C1(C)C` (stereo not shown) [Compound 105, N-(1-(7,8-Difluoro-1-oxo-1,2-dihydroisoquinolin-4-yl)ethyl)-N,3,3-trimethylindoline-2-carboxamide], the EC50 was ≥ 25 µM.
For `CC(c1c[nH]c(=O)c2c(F)c(F)ccc12)N(C)C(=O)C1Nc2ccccc2C1(C)C` (stereo not shown) [Compound 106, N-(1-(7,8-Difluoro-1-oxo-1,2-dihydroisoquinolin-4-yl)ethyl)-N,3,3-trimethylindoline-2-carboxamide], the EC50 was ≥ 25 µM.
Work on `CC(c1c[nH]c(=O)c2c(F)c(F)ccc12)N(C)C(=O)C1Nc2ccccc2C1(C)C` (stereo not shown) [Compound 107, N-(1-(7,8-Difluoro-1-oxo-1,2-dihydroisoquinolin-4-yl)ethyl)-N,3,3-trimethylindoline-2-carboxamide] yielded an EC50 of 16 µM.
In the case of `CC(c1c[nH]c(=O)c2cc(F)c(F)cc12)N(C)C(=O)C1Nc2ccccc2C1(C)C` (stereo not shown) [Compound 113, N-(1-(6,7-Difluoro-1-oxo-1,2-dihydroisoquinolin-4-yl)ethyl)-N,3,3-trimethylindoline-2-carboxamide], the EC50 is reported as ≥ 25 µM.
`CC(c1c[nH]c(=O)c2cc(F)c(F)cc12)N(C)C(=O)C1Nc2ccccc2C1(C)C` (stereo not shown) [Compound 114, N-(1-(6,7-Difluoro-1-oxo-1,2-dihydroisoquinolin-4-yl)ethyl)-N,3,3-trimethylindoline-2-carboxamide] gave an EC50 of 16 µM.
`CC(c1c[nH]c(=O)c2cc(F)c(F)cc12)N(C)C(=O)C1Nc2ccccc2C1(C)C` (stereo not shown) [Compound 115, N-(1-(6,7-Difluoro-1-oxo-1,2-dihydroisoquinolin-4-yl)ethyl)-N,3,3-trimethylindoline-2-carboxamide] was tested, and the EC50 was 19 µM.

Same assay, conditions: Hepatitis B virus, HepDE19, 168 h, HepDE19 cells, 7 day incubation, rcDNA measured by Quantigene 2.0 bDNA assay, top concentration 25 μM; read-out: DE-19bDNA EC50
`CC(c1c[nH]c(=O)c2c(F)c(F)ccc12)N(C)C(=O)C1Nc2ccccc2C1(C)C` (stereo not shown) [Compound 104, N-(1-(7,8-Difluoro-1-oxo-1,2-dihydroisoquinolin-4-yl)ethyl)-N,3,3-trimethylindoline-2-carboxamide] was tested, and the EC50 was ≥ 25 µM.
Compound `CC(c1c[nH]c(=O)c2cc(F)c(F)cc12)N(C)C(=O)C1Nc2ccccc2C1(C)C` (stereo not shown) [Compound 112, N-(1-(6,7-Difluoro-1-oxo-1,2-dihydroisoquinolin-4-yl)ethyl)-N,3,3-trimethylindoline-2-carboxamide] has an EC50 of 21 µM.
Compound `C[C@H](c1c[nH]c(=O)c2ccccc12)N(C)C(=O)c1ccc(C(F)(F)F)c(F)c1` [Compound 145, (R)-3-Fluoro-N-methyl-N-(1-(1-oxo-1,2-dihydroisoquinolin-4-yl)ethyl)-4-(trifluoromethyl)benzamide] has an EC50 of 0.11 µM.
`C[C@H](c1c[nH]c(=O)c2ccccc12)N(C)C(=O)c1ccc(C(F)(F)F)cc1` [Compound 147, (R)-N-Methyl-N-(1-(1-oxo-1,2-dihydroisoquinolin-4-yl)ethyl)-4-(trifluoromethyl)benzamide] was tested, and the EC50 was 0.16 µM.
Work on `C[C@H](c1c[nH]c(=O)c2ccccc12)N(C)C(=O)c1ccc(Cl)c(F)c1` [Compound 148, (R)-4-Chloro-3-fluoro-N-methyl-N-(1-(1-oxo-1,2-dihydroisoquinolin-4-yl)ethyl)benzamide] yielded an EC50 of 0.27 µM.
Work on `C[C@H](c1c[nH]c(=O)c2ccccc12)N(C)C(=O)c1ccc(F)c(Cl)c1` [Compound 149, (R)-3-Chloro-4-fluoro-N-methyl-N-(1-(1-oxo-1,2-dihydroisoquinolin-4-yl)ethyl)benzamide] yielded an EC50 of 0.68 µM.
In the case of `C[C@H](c1c[nH]c(=O)c2ccccc12)N(C)C(=O)c1ccc(Br)c(F)c1` [Compound 150, (R)-4-Bromo-3-fluoro-N-methyl-N-(1-(1-oxo-1,2-dihydroisoquinolin-4-yl)ethyl)benzamide], the EC50 is reported as 0.51 µM.
For `C[C@H](c1c[nH]c(=O)c2ccccc12)N(C)C(=O)Cc1ccc(Cl)cc1` [Compound 151, (R)-2-(4-Chlorophenyl)-N-methyl-N-(1-(1-oxo-1,2-dihydroisoquinolin-4-yl)ethyl)acetamide], the EC50 was 3.54 µM.

Same assay, conditions: Hepatitis B virus, HepDE19, 168 h, read-out: DE-19bDNA EC50 (μM), HepDE19 cells, 7 day incubation, rcDNA measured by Quantigene 2.0 bDNA assay, top concentration 25 μM
`C[C@H](c1c[nH]c(=O)c2cc(F)c(F)cc12)N(C)C(=O)c1cc2c([nH]1)CCCC2` [Compound 34, (R)-N-(1-(6,7-Difluoro-1-oxo-1,2-dihydroisoquinolin-4-yl)ethyl)-N-methyl-4,5,6,7-tetrahydro-1H-indole-2-carboxamide] showed an EC50 of 0.05 µM.
`C[C@H](c1c[nH]c(=O)c2c(F)c(F)ccc12)N(C)C(=O)c1cccc(=O)[nH]1` [Compound 87, (R)-N-(1-(7,8-Difluoro-1-oxo-1,2-dihydroisoquinolin-4-yl)ethyl)-N-methyl-6-oxo-1,6-dihydropyridine-2-carboxamide] gave an EC50 of 18 µM.
Compound `C[C@H](c1c[nH]c(=O)c2ccccc12)N(C)C(=O)c1ccc(Br)cc1` [Compound 146, (R)-4-Bromo-N-methyl-N-(1-(1-oxo-1,2-dihydroisoquinolin-4-yl)ethyl)benzamide] has an EC50 of 0.15 µM.
